Experimental data reported in US20110152267A1, “Compositions and Methods for Treating Hyperproliferative Disorders” (Texas Tech University System, priority 2009, published 2011).

Experiments:
Format in all cases: cell-based, human
[1] = test system: CHLA-90 pediatric neuroblastoma cell line; test: DIMSCAN cytotoxicity, fenretinide + L-threo-sphinganines 3:1 (Example B21)
Procedure: (§1) Cytotoxicity Assay—Once again, cytotoxicity is determined using the DIMSCAN assay system (R. Proffitt et al., Cytometry 24, 204-213 (1996); T. Frgala et al., Mol Cancer Ther. 6:886-97, 2007). The system employs digital imaging microscopy to quantify viable cells, which selectively accumulate fluorescein diacetate to become brightly fluorescent. The system is capable of measuring cytotoxicity over a 4-5 log dynamic range by quenching the residual fluorescence of dead and dying cells with eosin Y and quantifying the total fluorescence of viable cells using digital thresholding. Measured fluorescence is directly proportionate to the number of viable cells. A comparison of the total fluorescence of a drug-treated cell population to the fluorescence of a similar number of untreated cells yields a survival fraction. In brief, 2000 to 10,000 cells/well (depending on size and growth rates) are replicate plated into 60 wells of a 96-well tissue culture plate in 0.1 mL of whole medium and allowed to attach overnight. Drug(s) are then added in 0.05 mL of whole medium to the final concentrations indicated. Drugs (fenretinide, and various chain length L-threo-sphinganines) were tested both as single agents and in a 3:1 ratio of fenretinide:sphinganine. C18-L-threo-sphinganine, or “safingol,” was also tested and results shown for reference. There are 12 wells treated per drug concentration. Twelve wells receive drug vehicle-only to the appropriate final concentration and serve as controls for the plate. Cells are incubated for 96 hours at 37° C. in ambient air with 5% CO2. Fluorescein diacetate is then added to each well in 0.05 mL media to a final concentration of 8 microgram/mL. Cells are incubated for a further 15 minutes at 37° C. and 0.03 mL of 0.5% eosin Y is added to each well. Total fluorescence of viable cells is then measured by digital imaging microscopy. Results were graphed as the ratio of the fluoresecence of drug-treated wells to non-drug treated control wells (i.e., Survival Fraction). All tests were performed at least twice. Representative results are shown.
(§2) The Combination Index (CI) is a term to describe mathematical modeling of the pharmacologic effects on cytotoxicity (cell death) of two drugs in combination based. Cytotoxic “synergy” is defined as a cell death affect which is greater than would be expected from a simple product of the single agent cytotoxicities alone (i.e. an “additive” effect). By Chou-Talalay analysis, a CI<0.9 on a Fraction Affected (“Fa”, i.e. fraction of cells killed) indicates synergy, with smaller numbers indicating greater synergy; a CI of 0.9-1.1 signifies an additive or near-additive effect; and a CI>1.1 means the drug combination is antagonistic.
Fenretinide and L-threo-sphinganines tested in human pediatric neuroblastoma (a nerve-related, solid tumor cancer) cell line, CHLA-90.

[2] = test system: U-266 Multiple Myeloma cell line; test: DIMSCAN cytotoxicity, fenretinide + L-threo-sphinganines 3:1 (Example B3); conditions: 96 h
Procedure: as §1, §2
Fenretinide and L-threo-sphinganines tested in human Multiple Myeloma (a cancer of the blood and bone marrow) cell line, U-266.

[3] = test system: HT-29 colorectal adenocarcinoma cell line; test: DIMSCAN cytotoxicity, fenretinide + L-threo-sphinganines 3:1 (Example B10); conditions: 96 h
Procedure: as §1, §2
Fenretinide and L-threo-sphinganines tested in human colorectal adenocarcinoma (colon cancer) cell line, HT-29.

[4] = test system: OVCAR-8 ovarian adenocarcinoma cell line; test: DIMSCAN cytotoxicity, fenretinide + L-threo-sphinganines 3:1 (Example B15); parameters: key to CI (Combination Index): Chou-Talalay CI: <0.9 synergy, 0.9-1.1 additive, >1.1 antagonism; conditions: 96 h
Procedure: as §1, §2
Fenretinide and L-threo-sphinganines tested in human ovarian adenocarcinoma (ovarian cancer) cell line, OVCAR-8.

[5] = test system: U-118 Glioblastoma cell line; test: DIMSCAN cytotoxicity, fenretinide + L-threo-sphinganines 3:1 (Example B5); parameters: key to CI (Combination Index): CI<0.9 synergy, 0.9-1.1 additive, >1.1 antagonistic; conditions: U-118 MG, 96 h
Procedure: as §1, §2
Fenretinide and L-threo-sphinganines tested in human Glioblastoma (brain cancer) cell line, U-118.

[6] = test system: SJ-G2 Glioblastoma cell line; test: DIMSCAN cytotoxicity, fenretinide + L-threo-sphinganines 3:1 (Example B8); conditions: 96 h
Procedure: as §1, §2
Fenretinide and L-threo-sphinganines tested in human Glioblastoma (brain cancer) cell line, SJ-G2.

[7] = test system: OE-33 esophageal adenocarcinoma cell line; test: DIMSCAN cytotoxicity, fenretinide + L-threo-sphinganines 3:1 (Example B19)
Procedure: as §1, §2
(§3) Fenretinide and L-threo-sphinganines tested in human esophageal adenocarcinoma (esophagus cancer) cell lines, OE-19 and OE-33.

[8] = test system: OE-19 esophageal adenocarcinoma cell line; test: as above
Procedure: as §1, §2, §3

[9] = 4-HPR 3 μM + L-threo-sphinganine 1 μM
[10] = 4-HPR 6 μM + L-threo-sphinganine 2 μM
[11] = 4-HPR 9 μM + L-threo-sphinganine 3 μM
[12] = 4-HPR 12 μM + L-threo-sphinganine 4 μM
[13] = 4-HPR 1.5 μM + L-threo-sphinganine 0.5 μM

CCCCCCCCCCCCCCCC[C@H](O)[C@@H](N)CO [C19, (2S,3S)-2-amino-1,3-nonadecanediol]
CI [1, 9]: 0.4
Fa [1, 9]: 0.9960
CI [1, 10]: 0.1
Fa [1, 10]: 0.9993
CI [1, 11]: 0.1
Fa [1, 11]: 1
Fa [1, 12]: 1.0000
CI (Combination Index) [2, 13]: 1.0
Fa (fraction affected) [2, 13]: 0.19
CI (Combination Index) [2, 9]: 1.4
Fa (fraction affected) [2, 9]: 0.414
CI (Combination Index) [2, 10]: 0.9
Fa (fraction affected) [2, 10]: 0.933
CI (Combination Index) [2, 11]: 0.3
Fa (fraction affected) [2, 11]: 0.999
CI (Combination Index) [3, 13]: 1.2
Fa (fraction affected) [3, 13]: 0.138
CI (Combination Index) [3, 9]: 1.0
Fa (fraction affected) [3, 9]: 0.736
CI (Combination Index) [3, 10]: 0.8
Fa (fraction affected) [3, 10]: 0.965
CI (Combination Index) [3, 11]: 0.8
Fa (fraction affected) [3, 11]: 0.993
CI (Combination Index) [4, 13]: 0.1
Fa (fraction affected) [4, 13]: 0.787
CI (Combination Index) [4, 9]: 0.1
Fa (fraction affected) [4, 9]: 0.881
CI (Combination Index) [4, 10]: 0.1
Fa (fraction affected) [4, 10]: 0.943
CI (Combination Index) [4, 11]: 0.1
Fa (fraction affected) [4, 11]: 0.978
CI (Combination Index) [5, 13]: 1.3
Fa (fraction affected) [5, 13]: 0.530
CI (Combination Index) [5, 9]: 0.9
Fa (fraction affected) [5, 9]: 0.882
CI (Combination Index) [5, 10]: 0.4
Fa (fraction affected) [5, 10]: 0.991
CI (Combination Index) [5, 11]: 0.3
Fa (fraction affected) [5, 11]: 0.998
CI (Combination Index) [6, 13]: 0.7
Fa (fraction affected) [6, 13]: 0.389
CI (Combination Index) [6, 9]: 0.8
Fa (fraction affected) [6, 9]: 0.700
CI (Combination Index) [6, 10]: 0.6
Fa (fraction affected) [6, 10]: 0.975
CI (Combination Index) [6, 11]: 0.7
Fa (fraction affected) [6, 11]: 0.983
CI [7, 13]: 1.9
Fa [7, 13]: 0.299
CI [7, 9]: 1.6
Fa [7, 9]: 0.582
CI [7, 10]: 0.6
Fa [7, 10]: 0.951
CI [7, 11]: 0.3
Fa [7, 11]: 0.989
CI [8, 13]: 1.0
Fa [8, 13]: 0.094
CI [8, 9]: 1.6
Fa [8, 9]: 0.109
CI [8, 10]: 1.6
Fa [8, 10]: 0.173
CI [8, 11]: 1.1
Fa [8, 11]: 0.272

CCCCCCCCCCCCCCC[C@H](O)[C@@H](N)CO [C18, (2S,3S)-2-amino-1,3-octadecanediol, reference compound]
CI [1, 9]: 0.5
Fa [1, 9]: 0.996
CI [1, 10]: 0.3
Fa [1, 10]: 0.9993
CI [1, 11]: 0.4
Fa [1, 11]: 0.9999
Fa [1, 12]: 1
CI (Combination Index) [2, 13]: 1.4
Fa (fraction affected) [2, 13]: 0.048
CI (Combination Index) [2, 9]: 1.5
Fa (fraction affected) [2, 9]: 0.268
CI (Combination Index) [2, 10]: 1.3
Fa (fraction affected) [2, 10]: 0.883
CI (Combination Index) [2, 11]: 0.8
Fa (fraction affected) [2, 11]: 0.999
CI (Combination Index) [3, 13]: 0.9
Fa (fraction affected) [3, 13]: 0.243
CI (Combination Index) [3, 9]: 0.7
Fa (fraction affected) [3, 9]: 0.756
CI (Combination Index) [3, 10]: 0.5
Fa (fraction affected) [3, 10]: 0.983
CI (Combination Index) [3, 11]: 0.3
Fa (fraction affected) [3, 11]: 0.999
CI (Combination Index) [4, 13]: 1.5
Fa (fraction affected) [4, 13]: 0.122
CI (Combination Index) [4, 9]: 1.5
Fa (fraction affected) [4, 9]: 0.202
CI (Combination Index) [4, 10]: 0.7
Fa (fraction affected) [4, 10]: 0.536
CI (Combination Index) [4, 11]: 0.5
Fa (fraction affected) [4, 11]: 0.761
CI (Combination Index) [5, 13]: 1.4
Fa (fraction affected) [5, 13]: 0.317
CI (Combination Index) [5, 9]: 2.3
Fa (fraction affected) [5, 9]: 0.407
CI (Combination Index) [5, 10]: 0.5
Fa (fraction affected) [5, 10]: 0.976
CI (Combination Index) [5, 11]: 0.3
Fa (fraction affected) [5, 11]: 0.995
CI (Combination Index) [6, 13]: 0.7
Fa (fraction affected) [6, 13]: 0.437
CI (Combination Index) [6, 9]: 0.7
Fa (fraction affected) [6, 9]: 0.728
CI (Combination Index) [6, 10]: 0.5
Fa (fraction affected) [6, 10]: 0.950
CI (Combination Index) [6, 11]: 0.6
Fa (fraction affected) [6, 11]: 0.958
CI [8, 13]: 0.7
Fa [8, 13]: 0.281
CI [8, 9]: 0.4
Fa [8, 9]: 0.464
CI [8, 10]: 0.2
Fa [8, 10]: 0.709
CI [8, 11]: 0.2
Fa [8, 11]: 0.799

CCCCCCCCCCCCCCCCC[C@H](O)[C@@H](N)CO [C20, (2S,3S)-2-amino-1,3-icosanediol]
CI [1, 9]: 0.5
Fa [1, 9]: 0.996
CI [1, 10]: 0.7
Fa [1, 10]: 0.999
CI [1, 11]: 1.1
Fa [1, 11]: 0.999
CI [1, 12]: 1.5
Fa [1, 12]: 0.9999
CI (Combination Index) [2, 13]: 1.2
Fa (fraction affected) [2, 13]: 0.259
CI (Combination Index) [2, 9]: 1.3
Fa (fraction affected) [2, 9]: 0.688
CI (Combination Index) [2, 10]: 0.4
Fa (fraction affected) [2, 10]: 0.999
CI (Combination Index) [2, 11]: >0.1
Fa (fraction affected) [2, 11]: 1.000
CI (Combination Index) [3, 13]: 0.8
Fa (fraction affected) [3, 13]: 0.287
CI (Combination Index) [3, 9]: 0.6
Fa (fraction affected) [3, 9]: 0.852
CI (Combination Index) [3, 10]: 0.6
Fa (fraction affected) [3, 10]: 0.971
CI (Combination Index) [3, 11]: 0.4
Fa (fraction affected) [3, 11]: 0.998
CI (Combination Index) [4, 13]: 0.5
Fa (fraction affected) [4, 13]: 0.259
CI (Combination Index) [4, 9]: 0.6
Fa (fraction affected) [4, 9]: 0.366
CI (Combination Index) [4, 10]: 0.8
Fa (fraction affected) [4, 10]: 0.453
CI (Combination Index) [4, 11]: 0.2
Fa (fraction affected) [4, 11]: 0.956
CI (Combination Index) [5, 13]: 1.8
Fa (fraction affected) [5, 13]: 0.645
CI (Combination Index) [5, 9]: 0.5
Fa (fraction affected) [5, 9]: 0.984
CI (Combination Index) [5, 10]: 0.3
Fa (fraction affected) [5, 10]: 0.998
CI (Combination Index) [5, 11]: 0.3
Fa (fraction affected) [5, 11]: 0.999
CI (Combination Index) [6, 13]: 0.9
Fa (fraction affected) [6, 13]: 0.408
CI (Combination Index) [6, 9]: 0.8
Fa (fraction affected) [6, 9]: 0.773
CI (Combination Index) [6, 10]: 1.1
Fa (fraction affected) [6, 10]: 0.896
CI (Combination Index) [6, 11]: 0.2
Fa (fraction affected) [6, 11]: 0.999
CI [7, 13]: 1.9
Fa [7, 13]: 0.255
CI [7, 9]: 1.9
Fa [7, 9]: 0.445
CI [7, 10]: 0.8
Fa [7, 10]: 0.883
CI [7, 11]: 0.2
Fa [7, 11]: 0.993
CI [8, 13]: 3.2
Fa [8, 13]: 0.352
CI [8, 9]: 6.6
Fa [8, 9]: 0.438
CI [8, 10]: >>1
Fa [8, 10]: 0.708
CI [8, 11]: >>1
Fa [8, 11]: 0.771
